Laboratory results published in patent US7427627B2, “N-(4-(4-methylthiazol-5-yl) pyrimidin-2-yl)-N-phenylamines as antiproliferative compounds” (Cyclacel Limited, priority 2001, dated 2008).
pIC50: −log10 of the molar value. Like-named read-outs stand apart in the source and are kept apart here.

How the values were obtained:
CDK2/cyclin E = target: T1, CDK2/cyclin E (Homo sapiens, UniProt P24941); test: Kinase assay CDK2/cyclin E; format: biochemical; settings: Table 1; read-out: Kinase inhibition, IC50 (μM) CDK2/E
T1 construct: His6

A549 = test: 72-h MTT cytotoxicity assay, A549; format: cell-based, human; settings: Homo sapiens; for pIC50: A549, 72 h, read-out: 72-h MTT IC50 A549, Table 3, Lung; for IC50: A549, read-out: 72-h MTT in vitro IC50 (μM) A549, Table 1, 72 h
Protocol: In short: cells were seeded into 96-well plates according to doubling time and incubated overnight at 37° C. Test compounds were made up in DMSO and a 1/3 dilution series prepared in 100 μL cell media, added to cells (in triplicates) and incubated for 72 ho at 37° C. MTT was made up as a stock of 5 mg/mL in cell media and filter-sterilised. Media was removed from cells followed by a wash with 200 μL PBS. MTT solution was then added at 20 μL per well and incubated in the dark at 37° C. for 4 h. MTT solution was removed and cells again washed with 200 μL PBS. MTT dye was solubilised with 200 μL per well of DMSO with agitation.

HT29 = test: 72-h MTT cytotoxicity assay, HT29; format: cell-based; settings: Homo sapiens; for pIC50: HT-29, 72 h, read-out: 72-h MTT IC50 HT29, Table 3, Colon; for IC50: HT-29, read-out: 72-h MTT in vitro IC50 (μM) HT29, Table 1, 72 h
Protocol: (§1) The compounds from the examples above were subjected to a standard cellular proliferation assay using human tumour cell lines obtained from the ATCC (American Type Culture Collection, 10801 University Boulevard, Manessas, Va. 20110-2209, USA). Standard 72-h MTT (thiazolyl blue; 3-[4,5-dimethylthiazol-2-yl]-2,5-diphenyltetrazolium bromide) assays were performed (Haselsberger, K.; Peterson, D. C.; Thomas, D. G.; Darling, J. L. Anti Cancer Drugs 1996, 7, 331-8; Loveland, B. E.; Johns, T. G.; Mackay, I. R.; Vaillant, F.; Wang, Z. X.; Hertzog, P. J. Biochemistry International 1992, 27, 501-10). In short: cells were seeded into 96-well plates according to doubling time and incubated overnight at 37° C. Test compounds were made up in DMSO and a 1/3 dilution series prepared in 100 μL cell media, added to cells (in triplicates) and incubated for 72 ho at 37° C. MTT was made up as a stock of 5 mg/mL in cell media and filter-sterilised. Media was removed from cells followed by a wash with 200 μL PBS. MTT solution was then added at 20 μL per well and incubated in the dark at 37° C. for 4 h. MTT solution was removed and cells again washed with 200 μL PBS. MTT dye was solubilised with 200 μL per well of DMSO with agitation.

Saos-2 = test: 72-h MTT cytotoxicity assay, Saos-2; format: cell-based; settings: Homo sapiens; for pIC50: SAOS-2, 72 h, read-out: 72-h MTT IC50 Saos-2, Table 3, Bone osteosarcoma; for IC50: SAOS-2, read-out: 72-h MTT in vitro IC50 (μM) Saos-2, Table 1, 72 h
Protocol: as §1

MCF-7 = test: 72-h MTT assay, MCF-7; format: cell-based; settings: Homo sapiens, MCF7, 72 h, read-out: 72-h MTT IC50 MCF-7; Table 3; Breast
Protocol: as §1

Hela = test: 72-h MTT assay, Hela; format: cell-based; settings: Homo sapiens, read-out: 72-h MTT IC50 Hela, Table 3, Cervix
Protocol: as §1

Lovo = test: 72-h MTT assay, Lovo; format: cell-based; settings: Homo sapiens, read-out: 72-h MTT IC50 Lovo, Table 3, Colon
Protocol: as §1

H1299 = test: 72-h MTT assay, H1299; format: cell-based; settings: Homo sapiens, NCI-H1299, 72 h, read-out: 72-h MTT IC50 H1299; Table 3; Lung
Protocol: as §1

HCT-116 = test: 72-h MTT assay, HCT-116; format: cell-based; settings: Homo sapiens, HCT-116, 72 h, read-out: 72-h MTT IC50 HCT-116; Table 3; Colon
Protocol: as §1

AGS = test: 72-h MTT assay, AGS; format: cell-based; settings: Homo sapiens, read-out: 72-h MTT IC50 AGS, Table 3, Gastric adenocarcinoma
Protocol: as §1

SKUT-1B = test: 72-h MTT assay, SKUT-1B; format: cell-based; settings: Homo sapiens, Skut1B, read-out: 72-h MTT IC50 SKUT-1B, Table 3, Leiomyosarcoma
Protocol: as §1

SKUT-1 = test: 72-h MTT assay, SKUT-1; format: cell-based; settings: Homo sapiens, SK-UT-1, 72 h, read-out: 72-h MTT IC50 SKUT-1; Table 3; Leiomyosarcoma
Protocol: as §1

K562 = test: 72-h MTT assay, K562; format: cell-based; settings: Homo sapiens, K562, 72 h, read-out: 72-h MTT IC50 K562; Table 3; Chronic myelogenous leukaemia
Protocol: as §1

CCRF-CEM = test: 72-h MTT assay, CCRF-CEM; format: cell-based; settings: Homo sapiens, read-out: 72-h MTT IC50 CCRF-CEM, Table 3, Leukaemia
Protocol: as §1

HL60 = test: 72-h MTT assay, HL60; format: cell-based; settings: Homo sapiens, HL-60, 72 h, read-out: 72-h MTT IC50 HL60; Table 3; Promyelocytic leukaemia
Protocol: as §1

nci-H460 = test: 72-h MTT assay, nci-H460; format: cell-based; settings: Homo sapiens, NCI-H460, 72 h, read-out: 72-h MTT IC50 nci-H460; Table 3; Lung
Protocol: as §1

SK-N-MC = test: 72-h MTT assay, SK-N-MC; format: cell-based; settings: Homo sapiens, read-out: 72-h MTT IC50 SK-N-MC, Table 3, Neuroblastoma
Protocol: as §1

SJSA-1 = test: 72-h MTT assay, SJSA-1; format: cell-based; settings: Homo sapiens, SJSA-1, 72 h, read-out: 72-h MTT IC50 SJSA-1; Table 3; Osteogenic sarcoma
Protocol: as §1

DU-145 = test: 72-h MTT assay, DU-145; format: cell-based; settings: Homo sapiens, DU-145, 72 h, read-out: 72-h MTT IC50 DU-145; Table 3; Prostate
Protocol: as §1

Hacat = test: 72-h MTT assay, Hacat; format: cell-based; settings: Homo sapiens, read-out: 72-h MTT IC50 Hacat, Table 3, Skin keratinocytes
Protocol: as §1

Messa = test: 72-h MTT assay, Messa; format: cell-based; settings: Homo sapiens, MES-SA, read-out: 72-h MTT IC50 Messa, Table 3, Uterine
Protocol: as §1

Messa-Dx5 = test: 72-h MTT assay, Messa-Dx5; format: cell-based; settings: Homo sapiens, MES-SA/Dx5, 72 h, read-out: 72-h MTT IC50 Messa-Dx5; Table 3; Uterine
Protocol: as §1

Hs27 = test: 72-h MTT assay, Hs27; format: cell-based; settings: Homo sapiens, HS27, 72 h, read-out: 72-h MTT IC50 Hs27; Table 3; Foreskin fibroblast (non-transformed)
Protocol: as §1

IMR-90 = test: 72-h MTT assay, IMR-90; format: cell-based; settings: Homo sapiens, IMR-90, 72 h, read-out: 72-h MTT IC50 IMR-90; Table 3; Foetal lung fibroblast (non-transformed)
Protocol: as §1

WI38 = test: 72-h MTT assay, WI38; format: cell-based; settings: Homo sapiens, WI-38, 72 h, read-out: 72-h MTT IC50 WI38; Table 3; Foetal lung (non-transformed)
Protocol: as §1

tumour cells = test: 72-h MTT assay, mean over tumour cell lines; format: cell-based; settings: Homo sapiens, Table 3
Protocol: as §1

CDK4/cyclin D1 = CDK4/cyclin D1 (Homo sapiens, UniProt P11802); test: Kinase assay CDK4/cyclin D1;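 also: Enzyme: His6-tagged recombinant human CDK4 produced in baculovirus-infected Sf9 insect cells and purified by metal-chelate chromatography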
Chain of CDK4/cyclin D1 (P11802 whole entry): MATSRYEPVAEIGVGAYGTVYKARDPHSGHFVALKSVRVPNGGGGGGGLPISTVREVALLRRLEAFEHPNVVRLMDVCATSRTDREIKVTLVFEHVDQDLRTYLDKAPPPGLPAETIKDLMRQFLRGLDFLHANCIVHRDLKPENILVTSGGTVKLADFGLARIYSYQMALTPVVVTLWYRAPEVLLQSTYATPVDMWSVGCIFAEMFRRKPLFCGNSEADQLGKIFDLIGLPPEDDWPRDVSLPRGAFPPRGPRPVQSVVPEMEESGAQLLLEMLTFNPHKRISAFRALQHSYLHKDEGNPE
Chain of CDK4/cyclin D1 (P24385 whole entry partner): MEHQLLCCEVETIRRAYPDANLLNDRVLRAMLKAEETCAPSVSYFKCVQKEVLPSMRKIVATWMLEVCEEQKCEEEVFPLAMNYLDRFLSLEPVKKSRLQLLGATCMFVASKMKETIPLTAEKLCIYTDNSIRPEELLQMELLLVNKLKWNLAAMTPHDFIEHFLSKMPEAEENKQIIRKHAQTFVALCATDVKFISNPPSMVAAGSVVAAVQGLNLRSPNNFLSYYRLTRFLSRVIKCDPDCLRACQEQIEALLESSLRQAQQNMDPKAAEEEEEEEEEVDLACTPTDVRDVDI

IC50 (CDK2/cyclin E) [µM] | pIC50 (Hela) | pIC50 (Lovo) | pIC50 (H1299) | pIC50 (HCT-116) | pIC50 (AGS) | pIC50 (SKUT-1B) | pIC50 (SKUT-1) | pIC50 (K562) | pIC50 (CCRF-CEM) | pIC50 (HL60) | pIC50 (nci-H460) | pIC50 (SK-N-MC) | pIC50 (DU-145) | Structure (SMILES) | pIC50 (A549) | IC50 (A549) [µM] | pIC50 (HT29) | IC50 (HT29) [µM] | pIC50 (Saos-2) | IC50 (Saos-2) [µM] | also measured
0.43 | 6.26 | 6.64 | 6.20 | 6.16 | 5.98 | 6.41 | 6.09 | 5.87 | 6.07 | 5.54 | 6.22 | 6.24 | 6.01 | Cc1nc(N)sc1-c1ccnc(Nc2ccc(CCO)cc2)n1 [Compound 15, 2-{4-[4-(2-Amino-4-methyl-thiazol-5-yl)-pyrimidin-2-ylamino]-phenyl}-ethanol] | 6.02 | 3.04 | 6.39 | 3.8 | 6.03 | 2.84 | pIC50 (MCF-7): 5.32; pIC50 (SJSA-1): 5.82; pIC50 (Hacat): 6.14; pIC50 (Messa): 6.26; pIC50 (Messa-Dx5): 6.85; pIC50 (Hs27): < 5.30; pIC50 (IMR-90): < 5.30; pIC50 (WI38): < 5.30; pIC50 (tumour cells): 5.99; pIC50 (CDK4/cyclin D1): 5.87
0.09 | 6.25 | 6.68 | 5.97 | 6.02 | 5.95 | 6.52 | 6.19 | 6.27 | 6.30 | 6.37 | 6.55 | 6.38 | 5.76 | Cc1nc(N)sc1-c1ccnc(Nc2cccc(Br)c2)n1 [Compound 16, [4-(2-Amino-4-methyl-thiazol-5-yl)-pyrimidin-2-yl]-(3-bromo-phenyl)-amine] | 5.88 | 0.82 | 6.60 | 0.66 | 6.14 | 0.81 | pIC50 (Hacat): 6.30; pIC50 (Messa): 6.23; pIC50 (Messa-Dx5): 6.23; pIC50 (Hs27): < 5.30; pIC50 (IMR-90): < 5.30; pIC50 (WI38): < 5.30; pIC50 (tumour cells): 6.17; pIC50 (CDK4/cyclin D1): 5.75
